Values of other authors as cited in US20110104273A1, “GASTRIC RETENTIVE PHARMACEUTICAL COMPOSITIONS FOR IMMEDIATE AND EXTENDED RELEASE OF PHENYLEPHRINE” (DEPOMED, INC., priority 2009, published 2011).
Counter-ions that a name gives are not always drawn. Like-named read-outs stand apart in the source and are kept apart here.

Assays:
[1] = test system: cardiovascular system
[2] = not given; remark: listed apart in the source

| SMILES | solubility in water | solubility in water (hydrochloride) | threshold dosage for any effects on the cardiovascular system ([1]; administered orally in man) | effects on the cardiovascular system ([1]; oral over-the-counter (OTC) doses) | absorption from the gut ([2]; oral) | bioavailability ([2]; oral) | systemic bioavailability ([2]; oral administration) | fraction of oral dose excreted unchanged in the urine ([2]; oral dose) |
| --- | --- | --- | --- | --- | --- | --- | --- | --- |
| CNC[C@H](O)c1cccc(O)c1 [Phenylephrine HCl] | freely soluble |  |  |  |  |  |  |  |
| CNC[C@H](O)c1cccc(O)c1 [Phenylephrine, (R)-3-[-1-hydroxy-2-(methylamino)ethyl]phenol alcohol hydrochloride] |  | highly soluble | about 50 mg | minimal effects | well absorbed | up to 38% | around 40% | about 3% |
